Laboratory results reported in patent publication US20120076871A1, “METHOD FOR DETECTING, QUANTIFYING AND MAPPING DAMAGE AND/OR REPAIR OF DNA STRANDS” (GENOMIC VISION SA, priority 2010, published 2012).

Columns and labels:
[1] = tested on: human DNA extracted from cells; assay: Relative fragmentation-induced Profile Deviation: Fpg treatment and Molecular Combing of DNA from cells exposed to H2O2; assay type: cell-based
Protocol: Construction of a DNA length reference profile of a healthy cellular population and comparison of the profile obtained from the same population after exposure to a genotoxic agent is performed. High resolution DNA length reference profiles are constructed by measuring the size of thousands of DNA molecules uniformly stretched on a combed slide.
In the case of damage generated at high frequency along the genome (for instance SSB, abasic sites, methylated, alkylated, oxidated bases, photoproducts), the conversion of most of the targeted lesions into DSB generates theoretically as much new DNA extremities as much lesions were present on the molecules. When comparing the length distribution profile of the damaged sample with the undamaged reference, a Profile Deviation (PD) associated to a specific damage appears. The amount of lesions generated by the genotoxic compound can then be estimated directly from the PD. […]
For direct visualization of stretched DNA, cover-slips were mounted with 20 μL of a Block-Aid (Invitrogen, ref. B-10710)-YOYO-1 iodide (Molecular Probes, code Y3601) mixture (10000:1 v/v) in order to counter-stain all stretched molecules. […] Length of the YOYO-1-stained DNA fibers were measured with internal software GVlab v0.4.6 (Genomic Vision S.A., Paris, France).

[2] = tested on: testicular cancer; conditions: strongly reduced DNA repair capacity; cited from earlier work
[3] = tested on: non-small cell lung cancer (NSCLC); conditions: higher levels of DNA repair capacity; cited from earlier work

Row | SMILES | decay constants τ of exponential fit y=Ae^-x/τ of DNA size distribution as a function of H2O2 dose ([1]; 1, 5, 10 and 20 mM H2O2, 10 min, control excluded from linear fit) | length of stretched DNA strands (clustered oxidative damage) after Fpg treatment ([1]; cells incubated 10 min with 10 and 20 mM H2O2, compared to control sample) | survival rate after cisplatin treatment [2] [%] | survival after cisplatin treatment [3]
1 | OO [H2O2] | decrease linearly | much shorter than in the control sample |  | 
2 | N.N.[Cl][Pt][Cl] [cisplatin] |  |  | 95 | low survival
